In the supplement of paper PMC9663587:

Legend:
[1] = compound: T1, CN1CC[C@H](c2c(O)cc(O)c3c(=O)cc(-c4ccccc4Cl)oc23)[C@H](O)C1 [Flavopiridol]
[2] = compound: COc1cccc2c1C(=O)c1c(O)c3c(c(O)c1C2=O)C[C@@](O)(C(=O)CO)C[C@@H]3O[C@H]1C[C@H](N)[C@H](O)[C@H](C)O1 [Doxorubicin]
[3] = compound: CC(C)NC[C@@H](C(=O)N1CCN(c2ncnc3c2[C@H](C)C[C@H]3O)CC1)c1ccc(Cl)cc1 [Ipatasertib/GDC0068]
[4] = compound: CCNC(=O)c1noc(-c2cc(C(C)C)c(O)cc2O)c1-c1ccc(CN2CCOCC2)cc1 [Luminespib/NVP-AUY922]
[5] = compound: O=C(c1cc(Cc2n[nH]c(=O)c3ccccc23)ccc1F)N1CCN(C(=O)C2CC2)CC1 [Olaparib/AZD2281]
[6] = compound: CN(C)CC[C@H](CSc1ccccc1)Nc1ccc(S(=O)(=O)NC(=O)c2ccc(N3CCN(Cc4ccccc4-c4ccc(Cl)cc4)CC3)cc2)cc1[N+](=O)[O-] [ABT-737]
[7] = compound: CC(=O)O[C@H]1C(=O)[C@@]2(C)[C@H]([C@H](OC(=O)c3ccccc3)[C@]3(O)C[C@H](OC(=O)[C@H](O)[C@@H](NC(=O)c4ccccc4)c4ccccc4)C(C)=C1C3(C)C)[C@]1(OC(C)=O)CO[C@@H]1C[C@@H]2O [Paclitaxel]
[8] = compound: Cc1nc(-c2cn3c(n2)-c2ccc(-c4cnn(C(C)(C)C(N)=O)c4)cc2OCC3)n(C(C)C)n1 [Taselisib/GDC0032]
[9] = compound: CN(C)C/C=C/C(=O)Nc1ccc(O[C@@H]2CCC[C@@H](Nc3ncc(Cl)c(-c4c[nH]c5ccccc45)n3)C2)cc1 [BSJ-01-175]
[10] = compound: T1, Flavopiridol; test: GR value, 72 h; higher = faster growth (1 = untreated, <0 = killing);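 note: breast cancer and non-malignant breast epithelial lines, nine half-log doses, viable cells counted by Hoechst and LIVE/DEAD dye imaging versus time-zero plates and DMSO controls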
[11] = compound: CN(C)C(=O)c1cc2cnc(Nc3ccc(N4CCNCC4)cn3)nc2n1C1CCCC1 [LEE011/Ribociclib]; test: as above
[12] = compound: CCN1CCN(Cc2ccc(Nc3ncc(F)c(-c4cc(F)c5nc(C)n(C(C)C)c5c4)n3)nc2)CC1; test: as above
[13] = compound: C=CC(=O)Nc1ccc(C(=O)Nc2[nH]nc3c2CN(C(=O)N[C@H](CN(C)C)c2ccccc2)C3(C)C)cc1 [YKL-5-124]; test: as above
[14] = compound: CC(=O)c1c(C)c2cnc(Nc3ccc(N4CCN(CCOCCOCCOCCNC(=O)COc5cccc6c5C(=O)N(C5CCC(=O)NC5=O)C6=O)CC4)cn3)nc2n(C2CCCC2)c1=O [BSJ-03-123]; test: as above
[15] = compound: CC(=O)c1c(C)c2cnc(Nc3ccc(N4CCNCC4)cn3)nc2n(C2CCCC2)c1=O; test: as above
[16] = compound: CCc1cnn2c(NCc3ccc[n+]([O-])c3)cc(N3CCCC[C@H]3CCO)nc12; test: as above
[17] = compound: CN(C)C/C=C/C(=O)Nc1ccc(C(=O)N2CCC[C@@H](Nc3ncc(Cl)c(-c4c[nH]c5ccccc45)n3)C2)cc1 [THZ531]; test: as above
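Throughout, for GR50, 72 h: breast cancer and non-malignant breast epithelial cell lines, Deep Dye Drop or Dye Drop imaging, nine half-log doses, GR normalized to time-zero plates and DMSO-only controls.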

For MDAMB231, the “GR50, 72 h” value [1] was 0.139 µM, the “GR50, 72 h” value [2] was 0.00504 µM and the “GR50, 72 h” value [3] was > 10 µM. For the same cell line, the “GR50, 72 h” value [4] was 0.0058 µM, the “GR50, 72 h” value [5] was > 10 µM and the “GR50, 72 h” value [6] was 3.03 µM. The “GR50, 72 h” value [7] was 0.00232 µM, the “GR50, 72 h” value [8] was 2.2 µM and the “GR50, 72 h” value [9] was 0.0118 µM. The GR value ([10]; 0.0001 µM) was 1.02 GR, the GR value ([10]; 0.0003162 µM) was 1.03 GR and the GR value ([10]; 0.001 µM) was 1 GR. It also gave a GR value ([10]; 0.003162 µM) of 0.886 GR, a GR value ([10]; 0.01 µM) of 0.858 GR and a GR value ([10]; 0.03162 µM) of 0.866 GR. The GR value ([10]; 0.1 µM) was 0.656 GR, the GR value ([10]; 0.3162 µM) was 0.152 GR and the GR value ([10]; 1 µM) was -0.434 GR. The GR value ([11]; 0.001 µM) was 0.792 GR, the GR value ([11]; 0.003162 µM) was 0.835 GR and the GR value ([11]; 0.01 µM) was 0.747 GR. It also gave a GR value ([11]; 0.03162 µM) of 0.762 GR, a GR value ([11]; 0.1 µM) of 0.673 GR and a GR value ([11]; 0.3162 µM) of 0.617 GR. It also gave a GR value ([11]; 1 µM) of 0.569 GR, a GR value ([11]; 3.162 µM) of 0.466 GR and a GR value ([11]; 10 µM) of 0.215 GR. It also gave a GR value ([12]; 0.001 µM) of 0.942 GR, a GR value ([12]; 0.003162 µM) of 0.859 GR and a GR value ([12]; 0.01 µM) of 0.699 GR. It also gave a GR value ([12]; 0.03162 µM) of 0.513 GR, a GR value ([12]; 0.1 µM) of 0.289 GR and a GR value ([12]; 0.3162 µM) of 0.169 GR. The GR value ([12]; 1 µM) was 0.0774 GR, the GR value ([12]; 3.162 µM) was -0.187 GR and the GR value ([12]; 10 µM) was -0.492 GR. The GR value ([13]; 0.001 µM) was 0.388 GR, the GR value ([13]; 0.003162 µM) was 0.284 GR and the GR value ([13]; 0.01 µM) was 0.2 GR. It also gave a GR value ([13]; 0.03162 µM) of 0.144 GR, a GR value ([13]; 0.1 µM) of 0.101 GR and a GR value ([13]; 0.3162 µM) of 0.0485 GR. It also gave a GR value ([13]; 1 µM) of 0.0611 GR, a GR value ([13]; 3.162 µM) of 0.0322 GR and a GR value ([13]; 10 µM) of -0.182 GR. It also gave a GR value ([14]; 0.001 µM) of 0.926 GR, a GR value ([14]; 0.003162 µM) of 0.889 GR and a GR value ([14]; 0.01 µM) of 0.828 GR. The GR value ([14]; 0.03162 µM) was 0.779 GR, the GR value ([14]; 0.1 µM) was 0.69 GR and the GR value ([14]; 0.3162 µM) was 0.644 GR. For the same cell line, the GR value ([14]; 1 µM) was 0.466 GR, the GR value ([14]; 3.162 µM) was 0.478 GR and the GR value ([14]; 10 µM) was -0.156 GR. It also gave a GR value ([15]; 0.0003162 µM) of 1.08 GR, a GR value ([15]; 0.001 µM) of 1.02 GR and a GR value ([15]; 0.003162 µM) of 0.921 GR. It also gave a GR value ([15]; 0.01 µM) of 0.824 GR, a GR value ([15]; 0.03162 µM) of 0.637 GR and a GR value ([15]; 0.1 µM) of 0.494 GR. For the same cell line, the GR value ([15]; 0.3162 µM) was 0.418 GR, the GR value ([15]; 1 µM) was 0.288 GR and the GR value ([15]; 3.162 µM) was 0.202 GR. It also gave a GR value ([16]; 0.0001 µM) of 0.921 GR, a GR value ([16]; 0.0003162 µM) of 0.995 GR and a GR value ([16]; 0.001 µM) of 0.966 GR. For the same cell line, the GR value ([16]; 0.003162 µM) was 0.93 GR, the GR value ([16]; 0.01 µM) was 0.51 GR and the GR value ([16]; 0.03162 µM) was -0.288 GR. For the same cell line, the GR value ([16]; 0.1 µM) was -0.361 GR, the GR value ([16]; 0.3162 µM) was -0.372 GR and the GR value ([16]; 1 µM) was -0.426 GR. It also gave a GR value ([17]; 0.0001 µM) of 1.03 GR, a GR value ([17]; 0.0003162 µM) of 0.974 GR and a GR value ([17]; 0.001 µM) of 0.936 GR. The GR value ([17]; 0.003162 µM) was 1.02 GR, the GR value ([17]; 0.01 µM) was 0.939 GR and the GR value ([17]; 0.03162 µM) was 0.975 GR. The GR value ([17]; 0.1 µM) was 0.751 GR, the GR value ([17]; 0.3162 µM) was 0.443 GR and the GR value ([17]; 1 µM) was -0.275 GR.
